The record followed here is ChEMBL document CHEMBL1142186, “Multistep resistance selection and postantibiotic-effect studies of the antipneumococcal activity of LBM415 compared to other agents” (2007).

Molecules are shown by their SMILES. Converted amounts (≈) assume the structure as drawn. Some results are limits rather than exact numbers.

For assay [1], the system named is Streptococcus pneumoniae. In words: microbe, parasite or virus in culture.
The test system of assay [2] is Streptococcus pneumoniae. The assay can be described thus: Antibacterial activity against moxifloxacin resistance selected Streptococcus pneumoniae 3665 with GyrA S81Y mutation after 38 passages by macrodilution method. Format: functional.
In assay [3] the test system is Streptococcus pneumoniae. The assay can be described thus: Antibacterial activity against Streptococcus pneumoniae 1076 by macrodilution method. Format: functional.
Assay [4] has as its system Streptococcus pneumoniae. In words: Antibacterial activity against levofloxacin resistance selected Streptococcus pneumoniae 3009 with GyrA S81Y and ParC S79Y mutation after 10 antibiotic-free subcultures by macrodilution method. Format: functional.
For assay [5], the system named is Streptococcus pneumoniae. The assay can be described thus: Antibacterial activity against moxifloxacin resistance selected Streptococcus pneumoniae 19 with GyrA S81F mutation after 32 passages by macrodilution method. Format: functional.
Assay [6] relates to Streptococcus pneumoniae. The assay can be described thus: Antibacterial activity against moxifloxacin resistance selected Streptococcus pneumoniae 1076 with ParC S79Y mutation after 35 passages by macrodilution method. Type of assay: functional.
Assay [7] relates to Streptococcus pneumoniae. In words: Antibacterial activity against gatifloxacin resistance selected Streptococcus pneumoniae 37 with GyrA S81Y, GyrB E474K and ParC S79Y mutation after 10 antibiotic-free subcultures by macrodilution method. Format: functional.
The subject of assay [8] is Streptococcus pneumoniae. In words: Antibacterial activity against moxifloxacin resistance selected Streptococcus pneumoniae 19 with GyrA S81F mutation after 10 antibiotic-free subcultures by macrodilution method. Format: functional.
For assay [9], the system named is Streptococcus pneumoniae. The assay can be described thus: Antibacterial activity against moxifloxacin resistance selected Streptococcus pneumoniae 3009 with GyrA S81F and ParC D83N mutation after 19 passages by macrodilution method. Format: functional.
The subject of assay [10] is Streptococcus pneumoniae. The assay can be described thus: Antibacterial activity against moxifloxacin resistance selected Streptococcus pneumoniae 3676 with GyrA E85G, GyrB S478I and ParC S79Y mutation after 10 antibiotic-free subcultures by macrodilution method. Type of assay: functional.
Assay [11] relates to Streptococcus pneumoniae. In words: Antibacterial activity against moxifloxacin resistance selected Streptococcus pneumoniae 3676 with GyrA E85G, GyrB S478I and ParC S79Y mutation after 50 passages by macrodilution method. Type of assay: functional.
The subject of assay [12] is Streptococcus pneumoniae. The assay can be described thus: Antibacterial activity against Streptococcus pneumoniae assessed as period of suppression of bacterial growth. Type of assay: functional.
For assay [13], the system named is Streptococcus pneumoniae. In words: Antibacterial activity against moxifloxacin resistance selected Streptococcus pneumoniae 3243 after 20 passages by macrodilution method. Type of assay: functional.
Assay [14] has as its system Streptococcus pneumoniae. The assay can be described thus: Antibacterial activity against azithromycin resistance selected Streptococcus pneumoniae 1077 with 23S rRNA A2058G mutation after 29 passages by macrodilution method. Format: functional.
Assay [15] relates to Streptococcus pneumoniae. In words: Antibacterial activity against Streptococcus pneumoniae 3243 by macrodilution method. Type of assay: functional.
Assay [16] concerns Streptococcus pneumoniae. In words: Antibacterial activity against moxifloxacin resistance selected Streptococcus pneumoniae 3665 with GyrA S81Y mutation after 10 antibiotic-free subcultures by macrodilution method. Format: functional.
Assay [17] deals with Streptococcus pneumoniae. In words: Antibacterial activity against azithromycin resistance selected Streptococcus pneumoniae 3243 with L22 insertion 93SFRPRA94 mutation after 10 antibiotic-free subcultures by macrodilution method. Format: functional.
Assay [18] concerns Streptococcus pneumoniae. In words: Antibacterial activity against clarithromycin resistance selected Streptococcus pneumoniae 3665 after 10 antibiotic-free subcultures by macrodilution method. Type of assay: functional.
Assay [19] deals with Streptococcus pneumoniae. In words: Antibacterial activity against azithromycin resistance selected Streptococcus pneumoniae 1077 with 23S rRNA A2058G mutation after 10 antibiotic-free subcultures by macrodilution method. Type of assay: functional.
Assay [20] deals with Streptococcus pneumoniae. The assay can be described thus: Antibacterial activity against clarithromycin resistance selected Streptococcus pneumoniae 3009 after 10 antibiotic-free subcultures by macrodilution method. Type of assay: functional.
The test system of assay [21] is Streptococcus pneumoniae. In words: Antibacterial activity against moxifloxacin resistance selected Streptococcus pneumoniae 24 with GyrA S81Y, GyrB P413S and ParC S79F mutation after 10 antibiotic-free subcultures by macrodilution method. Format: functional.
The subject of assay [22] is Streptococcus pneumoniae. In words: Antibacterial activity against moxifloxacin resistance selected Streptococcus pneumoniae 3243 after 10 antibiotic-free subcultures by macrodilution method. Format: functional.
The test system of assay [23] is Streptococcus pneumoniae. The assay can be described thus: Antibacterial activity against moxifloxacin resistance selected Streptococcus pneumoniae 3009 with GyrA S81F and ParC D83N mutation after 10 antibiotic-free subcultures by macrodilution method. Type of assay: functional.
The test system of assay [24] is Streptococcus pneumoniae. In words: Antibacterial activity against clarithromycin resistance selected Streptococcus pneumoniae 3243 with 23S rRNA A2059T mutation after 10 antibiotic-free subcultures by macrodilution method. Type of assay: functional.
For assay [25], the system named is Streptococcus pneumoniae. The assay can be described thus: Antibacterial activity against gatifloxacin resistance selected Streptococcus pneumoniae 3009 after 10 antibiotic-free subcultures by macrodilution method. Type of assay: functional.
In assay [26] the test system is Streptococcus pneumoniae. In words: Antibacterial activity against Streptococcus pneumoniae 2527 by macrodilution method. Type of assay: functional.
In assay [27] the test system is Streptococcus pneumoniae. In words: Antibacterial activity against azithromycin resistance selected Streptococcus pneumoniae 2527 after 20 passages by macrodilution method. Format: functional.
For assay [28], the system named is Streptococcus pneumoniae. The assay can be described thus: Antibacterial activity against azithromycin resistance selected Streptococcus pneumoniae 2527 after 10 antibiotic-free subcultures by macrodilution method. Type of assay: functional.
The subject of assay [29] is Streptococcus pneumoniae. The assay can be described thus: Antibacterial activity against clarithromycin resistance selected Streptococcus pneumoniae 3676 after 10 antibiotic-free subcultures by macrodilution method. Format: functional.
Assay [30] relates to Streptococcus pneumoniae. The assay can be described thus: Antibacterial activity against gatifloxacin resistance selected Streptococcus pneumoniae 1076 with ParC S79Y mutation after 10 antibiotic-free subcultures by macrodilution method. Format: functional.
The test system of assay [31] is Streptococcus pneumoniae. The assay can be described thus: Antibacterial activity against Streptococcus pneumoniae 1077 by macrodilution method. Type of assay: functional.
The subject of assay [32] is Streptococcus pneumoniae. The assay can be described thus: Antibacterial activity against azithromycin resistance selected Streptococcus pneumoniae 3243 with L22 insertion 93SFRPRA94 mutation after 33 passages by macrodilution method. Type of assay: functional.
Assay [33] relates to Streptococcus pneumoniae. The assay can be described thus: Antibacterial activity against moxifloxacin resistance selected Streptococcus pneumoniae 1076 with ParC S79Y mutation after 10 antibiotic-free subcultures by macrodilution method. Format: functional.
Assay [34] has as its system Streptococcus pneumoniae. In words: Antibacterial activity against levofloxacin resistance selected Streptococcus pneumoniae 19 with GyrA S81Y and ParC D83Y mutation after 10 antibiotic-free subcultures by macrodilution method. Format: functional.

With `COc1c(N2C[C@@H]3CCCN[C@@H]3C2)c(F)cc2c(=O)c(C(=O)O)cn(C3CC3)c12` [MOXIFLOXACIN], the MIC in the assay with Streptococcus pneumoniae [1] is 4 µg/mL (≈ 9.96 µM); in the assay with Streptococcus pneumoniae [2], 1 µg/mL (≈ 2.49 µM); with Streptococcus pneumoniae [3] it was 1 µg/mL (≈ 2.49 µM); in the assay with Streptococcus pneumoniae [4], 4 µg/mL (≈ 9.96 µM); against Streptococcus pneumoniae [5], 1 µg/mL (≈ 2.49 µM); in the assay on Streptococcus pneumoniae [6] it was 8 µg/mL (≈ 19.9 µM). Also, the MIC in the assay on Streptococcus pneumoniae [7] amounted to 16 µg/mL (≈ 39.9 µM); against Streptococcus pneumoniae [8] it was 2 µg/mL (≈ 4.98 µM); with Streptococcus pneumoniae [9], 2 µg/mL (≈ 4.98 µM); against Streptococcus pneumoniae [10], 8 µg/mL (≈ 19.9 µM); in the assay with Streptococcus pneumoniae [11], 8 µg/mL (≈ 19.9 µM); against Streptococcus pneumoniae [13] it was 1 µg/mL (≈ 2.49 µM). In addition, in the assay on Streptococcus pneumoniae [12], the “Post Antibiotic Effe” value came out at 1.5 h.
With `CC[C@H]1OC(=O)[C@H](C)[C@@H](O[C@H]2C[C@@](C)(OC)[C@@H](O)[C@H](C)O2)[C@H](C)[C@@H](O[C@@H]2O[C@H](C)C[C@H](N(C)C)[C@H]2O)[C@](C)(O)C[C@@H](C)CN(C)[C@H](C)[C@@H](O)[C@]1(C)O` [AZITHROMYCIN], the MIC is greater than 64 µg/mL in the assay with Streptococcus pneumoniae [14]; 0.03 µg/mL (≈ 0.0401 µM) with Streptococcus pneumoniae [15]; 8 µg/mL (≈ 10.7 µM) with Streptococcus pneumoniae [16]; 128 µg/mL (≈ 171 µM) against Streptococcus pneumoniae [4]; 0.5 µg/mL (≈ 0.668 µM) against Streptococcus pneumoniae [17]; 8 µg/mL (≈ 10.7 µM) in the assay with Streptococcus pneumoniae [18]. For the same molecule, the MIC with Streptococcus pneumoniae [19] was greater than 64 µg/mL; in the assay on Streptococcus pneumoniae [20], 128 µg/mL (≈ 171 µM); with Streptococcus pneumoniae [21], greater than 128 µg/mL; with Streptococcus pneumoniae [22], 0.016 µg/mL (≈ 0.0214 µM); in the assay on Streptococcus pneumoniae [7], greater than 128 µg/mL; in the assay with Streptococcus pneumoniae [23], greater than 128 µg/mL. In addition, the MIC with Streptococcus pneumoniae [8] is greater than 128 µg/mL; against Streptococcus pneumoniae [24], 1 µg/mL (≈ 1.34 µM); in the assay with Streptococcus pneumoniae [25], greater than 128 µg/mL; against Streptococcus pneumoniae [10], 4 µg/mL (≈ 5.34 µM); against Streptococcus pneumoniae [26], 0.016 µg/mL (≈ 0.0214 µM); in the assay with Streptococcus pneumoniae [27], 4 µg/mL (≈ 5.34 µM). In addition, the MIC was 4 µg/mL (≈ 5.34 µM) against Streptococcus pneumoniae [28]; 16 µg/mL (≈ 21.4 µM) in the assay with Streptococcus pneumoniae [29]; greater than 128 µg/mL against Streptococcus pneumoniae [30]; 0.03 µg/mL (≈ 0.0401 µM) with Streptococcus pneumoniae [31]; 0.25 µg/mL (≈ 0.334 µM) against Streptococcus pneumoniae [32]; greater than 128 µg/mL in the assay on Streptococcus pneumoniae [33]. Further, the MIC in the assay with Streptococcus pneumoniae [34] was greater than 128 µg/mL. For the same molecule, in the assay with Streptococcus pneumoniae [12], the “Post Antibiotic Effe” value stood at 3.1 h.
